Measured values as given in patent US20220296535A1, “Antibacterial Dosage Regime Using Cannabinoids” (Botanix Pharmaceuticals Limited, priority 2019, published 2022).
Values after ≈ are worked out from the molar mass of the structure shown. Values joined by “and” are separate entries in the source; they are usually repeats but may differ in a detail not shown here. Equal values may be shown once.

Assays:
[1] = test system: Staphylococcus aureus NARSA, VRS1; test: Expanded panel MIC micro-broth dilution; format: cell-based; settings: CaMHB
Protocol: (§1) The collaborator supplied sample as dry material. Angela Kavanagh prepared a stock solution at 10 mg/mL in neat DMSO. The highest concentration tested in the assay was 64 μg/mL for bacteria and 128 μg/mL for fungi. 2% DMSO was the final concentration using 1/20 dilution to achieve these concentrations.
(§2) The compound was serially diluted in Cation-adjusted Mueller Hinton Broth (CaMHB; BD, Cat. No. 212322) two-fold across the wells of polystyrene (PS) 96-well plates (Corning; Cat. No. 3370), plated in duplicate. All plates had flat bottom wells and were covered with low-evaporation lids.
(§3) Bacteria were cultured in CaMHB at 37° C. overnight, then diluted 40-fold and incubated at 37° C. for a further 2-3 h. The resultant mid-log phase cultures were diluted in CaMHB and added to each well of the compound-containing 96-well plates to give a final cell density of 5×10^5 CFU/mL, and a final compound concentration range of 0.03-64 μg/mL. The plates were covered and incubated at 37° C. for 20 h.
(§4) Inhibition of bacterial growth was determined visually, where the MIC was recorded as the lowest compound concentration with no visible growth.

[2] = test system: Streptococcus pneumoniae ATCC 33400; test: Expanded panel MIC micro-broth dilution; format: cell-based; settings: CaMHB
Protocol: as §1, §2, §3, §4

[3] = test system: Enterococcus faecium ATCC 35667; test: Expanded panel MIC micro-broth dilution; format: cell-based; settings: CaMHB
Protocol: as §1, §2, §3, §4

[4] = test system: Bacillus subtilis ATCC 6633; test: Expanded panel MIC micro-broth dilution; format: cell-based; settings: CaMHB
Protocol: as §1, §2, §3, §4

[5] = test system: Staphylococcus warneri Clinical isolate; test: Expanded panel MIC micro-broth dilution; format: cell-based; settings: CaMHB
Protocol: as §1, §2, §3, §4

[6] = test system: Staphylococcus warneri ATCC 27836; test: Expanded panel MIC micro-broth dilution; format: cell-based; settings: CaMHB
Protocol: as §1, §2, §3, §4

[7] = test system: Staphylococcus epidermidis ATCC 12228; test: Expanded panel MIC micro-broth dilution; format: cell-based; settings: CaMHB
Protocol: as §1, §2, §3, §4

[8] = test system: Enterococcus faecalis ATCC 29212; test: Expanded panel MIC micro-broth dilution; format: cell-based; settings: ATCC29212, CaMHB, read-out: Cannabidiol MIC (Batch 1)
Protocol: as §1, §2, §3, §4

[9] = test system: Staphylococcus aureus ATCC 33591; test: Expanded panel MIC micro-broth dilution; format: cell-based; settings: CaMHB
Protocol: as §1, §2, §3, §4

[10] = test system: Staphylococcus epidermidis NRS 60; test: Expanded panel MIC micro-broth dilution; format: cell-based; settings: CaMHB
Protocol: as §1, §2, §3, §4

[11] = test system: Staphylococcus aureus ATCC 43300; test: Expanded panel MIC micro-broth dilution; format: cell-based; settings: ATCC43300, CaMHB, read-out: Cannabidiol MIC (Batch 1)
Protocol: as §1, §2, §3, §4

[12] = test system: Bacillus cereus ATCC 11778; test: Expanded panel MIC micro-broth dilution; format: cell-based; settings: CaMHB
Protocol: as §1, §2, §3, §4

[13] = test system: Streptococcus pneumoniae ATCC 700677; test: Expanded panel MIC micro-broth dilution; format: cell-based; settings: ATCC700677, CaMHB, read-out: Cannabidiol MIC (Batch 1)
Protocol: as §1, §2, §3, §4

[14] = test system: Staphylococcus epidermidis ATCC 14990; test: Expanded panel MIC micro-broth dilution; format: cell-based; settings: CaMHB
Protocol: as §1, §2, §3, §4

[15] = test system: S. aureus MSSA (26 strains); test: MIC50/MIC90 micro-broth dilution, MSSA strains; settings: Staphylococcus aureus, MSSA

For C=C(C)C1CCC(C)=CC1c1c(O)cc(CCCCC)cc1O (stereo not drawn) [Cannabidiol, 2-[3-methyl-6-(1-methylethenyl)-2-cyclohexen-1-yl]-5-pentyl-1,3-benzenediol], the “Cannabidiol MIC (Batch 1)” value [1] was 2 µg/mL, the MIC ([1]; Staphylococcus aureus, read-out: Cannabidiol MIC (Batch 1)) was 1 µg/mL (≈ 3.18 µM) and the “Cannabidiol MIC (Batch 1)” value ([2]; Streptococcus pneumoniae ATCC 33400) was 2 µg/mL. The MIC ([2]; Streptococcus pneumoniae, ATCC33400, Streptococcus pneumoniae ATCC 33400, read-out: Cannabidiol MIC (Batch 1)) was 1 µg/mL (≈ 3.18 µM), the “Cannabidiol MIC (Batch 1)” value ([3]; Enterococcus faecium ATCC 35667) was 1 µg/mL and the MIC ([3]; Enterococcus faecium, ATCC35667, Enterococcus faecium ATCC 35667, read-out: Cannabidiol MIC (Batch 1)) was 0.5 µg/mL (≈ 1.59 µM). For the same compound, the “Cannabidiol MIC (Batch 1)” value ([4]; Bacillus subtilis ATCC 6633) was 2 µg/mL, the MIC ([4]; Bacillus subtilis, ATCC6633, Bacillus subtilis ATCC 6633, read-out: Cannabidiol MIC (Batch 1)) was 1 µg/mL (≈ 3.18 µM) and the “Cannabidiol MIC (Batch 1)” value [5] was 4 µg/mL. The MIC ([5]; Staphylococcus warneri, read-out: Cannabidiol MIC (Batch 1)) was 2 µg/mL (≈ 6.36 µM), the “Cannabidiol MIC (Batch 1)” value ([6]; Staphylococcus warneri ATCC 27836) was 4 µg/mL and the MIC ([6]; Staphylococcus warneri, ATCC27836, Staphylococcus warneri ATCC 27836, read-out: Cannabidiol MIC (Batch 1)) was 2 µg/mL (≈ 6.36 µM). For the same compound, the “Cannabidiol MIC (Batch 1)” value ([7]; Staphylococcus epidermidis ATCC 12228) was 2 µg/mL, the MIC ([7]; Staphylococcus epidermidis, ATCC12228, Staphylococcus epidermidis ATCC 12228, read-out: Cannabidiol MIC (Batch 1)) was 1 µg/mL (≈ 3.18 µM) and the MIC [8] was 2 µg/mL (≈ 6.36 µM). For the same compound, the “Cannabidiol MIC (Batch 1)” value ([9]; Staphylococcus aureus ATCC 33591) was 2 µg/mL, the MIC ([9]; Staphylococcus aureus, ATCC33591, Staphylococcus aureus ATCC 33591, read-out: Cannabidiol MIC (Batch 1)) was 1 µg/mL (≈ 3.18 µM) and the “Cannabidiol MIC (Batch 1)” value ([10]; Staphylococcus epidermidis NRS 60) was 4 µg/mL and 8 µg/mL. The MIC ([10]; Staphylococcus epidermidis, NRS60, Staphylococcus epidermidis NRS 60, read-out: Cannabidiol MIC (Batch 1)) was 4 to 8 µg/mL (≈ 12.7 to 25.4 µM), the MIC [11] was 1 µg/mL (≈ 3.18 µM) and the “Cannabidiol MIC (Batch 1)” value ([12]; Bacillus cereus ATCC 11778) was 2 µg/mL. The MIC ([12]; Bacillus cereus, ATCC11778, Bacillus cereus ATCC 11778, read-out: Cannabidiol MIC (Batch 1)) was 1 µg/mL (≈ 3.18 µM), the MIC [13] was 4 µg/mL (≈ 12.7 µM) and the “Cannabidiol MIC (Batch 1)” value ([14]; Staphylococcus epidermidis ATCC 14990) was 2 µg/mL. It also gave an MIC ([14]; Staphylococcus epidermidis, ATCC14990, Staphylococcus epidermidis ATCC 14990, read-out: Cannabidiol MIC (Batch 1)) of 1 µg/mL (≈ 3.18 µM), an MIC50 [15] of 2 µg/mL (≈ 6.36 µM) and an MIC90 [15] of 2 µg/mL (≈ 6.36 µM).
